Patent publication US6187802A, “Substituted 4-arylmethylene-2-imino-2,3-dihydrothiazoles and derivatives and their pharmaceutical use” (Knoll Aktiengesellschaft, priority 1997, dated 2001)
Where a name gives a salt, the structure may show the parent alone.

How the values were obtained:
[1] = target: T1, 5-hydroxytryptamine (5-HT) reuptake sites (Rattus norvegicus, UniProt P31652); assay: displacement of [3H]paroxetine from 5-HT reuptake sites, frontal cortical membranes; format: binding; settings: 10^-6 M test compound, [3H]paroxetine 30 pM, one test only, read-out: 5-HT uptake (% displacement of specific binding of tritiated ligand)
T1 construct: Frontal cortical tissue from the brains of male Sprague-Dawley rats; from tissue; host or cells: rat brain frontal cortex (crude synaptosomes in A2, washed membranes in A5)
Method: Frontal cortical tissue from the brains of male Charles River rats weighing 150-250 g was homogenised in ice-cold 0.25M sucrose (1:30 w/v) using a Kinematic polytron (speed setting 6 for 30 seconds) and centrifuged at 1000 g for 12 minutes. The supernatant was stored on ice and the pellet was resuspended in 0.25M sucrose (1:20 w/v) and centrifuged at 850 g for 10 minutes. Combined supernatants were diluted to 1:100 w/v with ice-cold 50 mM Tris-HCl, pH 7.5 (at 25° C.) containing 120 mM sodium chloride and 5 mM potassium chloride (Tris buffer) and centrifuged at 40,000 g for 10 minutes. The resulting pellet was resuspended in 50 mM Tris buffer (1:100 w/v) and recentrifuged at 40,000 g for 10 minutes. The final pellet was resuspended in 50 mM Tris buffer (equivalent to 2 mg wet weight of tissue/ml) and used immediately in the binding assay. All centrifugations were carried out at 4° C.
Membranes (1000 μl; equivalent to 2 mg wet weight of tissue/tube) were incubated with 200 μl [^3 H]paroxetine at a single concentration of 30 pM and 200 μl of distilled water (total binding) or 200 μl of test compound (10^-6 M) or 200 μl of citalopram (1 μM; non-specific binding) for 2 h at 22° C.
Membrane bound radioactivity was recovered by filtration under vacuum through Whatman GFIC filters using a Brandel cell harvester. Filters were rapidly washed with 16 ml ice-cold 50 mM Tris buffer and radioactivity determined by liquid scintillation counting (2 ml Packard MV Gold scintillator).
(§1) For each of these tests measuring the ability of compounds of Formula I to displace standard ligands from dopamine (DA), 5-hydroxytryptamine (5-HT) and noradrenaline (NA) reuptake sites in vitro, the percentage displacement of specific binding of tritiated ligand by 10^-6 M test compound was calculated in the following way:
(§2) Firstly, specific binding of tritiated ligand in the absence (A) and presence (B) of test compound was determined:
(§3) In the absence of compound:
(§4) A (dpm)=Total binding (dpm)-Non-specific binding (dpm)
(§5) In the presence of compound (10^-6 M):
(§6) B (dpm)=Binding at 10^-6 M (dpm)-Non-specific binding (dpm)
(§7) The specific binding of tritiated ligand in the presence (B) of compound was then converted to a percentage of specific binding of tritiated ligand in the absence (A) of compound:
(§8) % Specific binding at 10^-6 M=B (dpm)/A(dpm)×100
(§9) The percentage displacement of specific binding of trtiated ligand by the test compound (10^-6 M) was then obtained by subtraction of the percentage specific binding in the presence of compound from the percentage specific binding in the absence of compound, which is taken as the maximum binding and so equals 100%:
(§10) % Displacement at 10^-6 M=100-% Specific binding at 10^-6 M.
(§11) The values given below in Table 2 for examples 6 to 76 are % displacement of specific binding of tritiated ligand by 10^-6 M test compound and represent results from one test only. IA refers to <50% displacement.

[2] = target: T2, dopamine (DA) reuptake sites (Rattus norvegicus, UniProt P23977); assay: displacement of [3H]GBR 12935 from dopamine reuptake sites, striatal membranes; format: binding; settings: 10^-6 M test compound, [3H]GBR 12935 1 nM, one test only, read-out: DA uptake (% displacement of specific binding of tritiated ligand)
T2 construct: Striatal tissue from the brains of male Charles River rats weighing 150-250 g; from tissue; host or cells: rat brain striatum (crude synaptosomes in A1, washed membranes in A4)
Method: Striatal tissue from the brains of male Charles River rats weighing 150-250 g was homogenised in ice-cold 0.32M sucrose (1:80 w/v) using a motor driven teflon pestle (12 strokes, 800 rpm) and centrifuged at 1000 g for 12 minutes. The supernatant was stored on ice and the pellet was resuspended in 0.32M sucrose (1:80 w/v) and centrifuged at 850 g for 10 minutes. Combined supernatants were diluted to 1:320 w/v with ice-cold 50 mM Tris-HCl, pH 7.4 (at 25° C.) containing 200 mM sodium chloride and 5 mM potassium chloride (Tris buffer) and centrifuged at 40,000 g for 10 minutes. The resulting pellet was resuspended in 10 ml of 50 mM Tris buffer, incubated at 37° C. for 10 min, diluted in 50 mM Tris buffer (1:320 w/v) and recentrifuged at 40,000 g for 10 minutes. The final pellet was resuspended in 50 mM Tris buffer (equivalent to 1.25 mg wet weight of tissue/ml) and used immediately in the binding assay. All centrifugations were carried out at 4° C.
Membranes (800 μl; equivalent to 1 mg wet weight of tissue/tube) were incubated with 100 μl [^3 H]GBR 12935 at a single concentration of 1 nM and 100 μl of distilled water (total binding) or 100 μl of test compound (10^-6 M) or 100 μl of mazindol (1 μM; non-specific binding) for 90 min at 4° C.
Membrane bound radioactivity was recovered by filtration under vacuum through Whatman GF/C filters, pre-soaked for 1 h in 0.5% polyethylenimine,using a Brandel cell harvester. Filters were rapidly washed with 16 ml of ice-cold 50 mM Tris-HCl, pH 7.4 and radioactivity determined by liquid scintillation counting (2 ml Packard MV Gold scintillator).
as §1, §2, §3, §4, §5, §6, §7, §8, §9, §10, §11

[3] = target: T3, noradrenaline (NA) reuptake sites (Rattus norvegicus, UniProt Q63380); assay: displacement of [3H]nisoxetine from noradrenaline reuptake sites, frontal cortical membranes; settings: 10^-6 M test compound, [3H]nisoxetine 0.6 nM, one test only, read-out: NA uptake (% displacement of specific binding of tritiated ligand)
T3 construct: Frontal cortical tissue from the brains of male Sprague-Dawley rats; from tissue; host or cells: rat brain frontal cortex (crude synaptosomes in A3, washed membranes in A6)
Method: Frontal cortical tissue from the brains of male Charles River rats weighing 150-250 g was homogenised in ice-cold 50 mM Tris-HCl, pH 7.4 (at 25° C.) containing 120 mM sodium chloride and 5 mM potassium chloride (Tris buffer; 1:60 w/v) using a Kinematic polytron (speed setting 6 for 30 seconds) and centrifuged at 40,000 g for 10 minutes. The supernatant was discarded and the pellet rehomogenised in Tris buffer, 1:60 w/v, and centrifuged at 40,000 g for 10 minutes. This step was repeated twice more so that, in total, the brain tissue was homogenised and centrifuged four times. The final pellet was resuspended in 50 mM Tris-HCl, pH 7.4 containing 300 mM sodium chloride and 5 mM potassium chloride (equivalent to 25 mg wet weight of tissue/ml) and used immediately in the binding assay. All centrifugations were performed at 4° C.
Membranes (400 μl; equivalent to 10 mg wet weight of tissue/tube) were incubated with 50 μl [^3 H]nisoxetine at a single concentration of 0.6 nM and 50 μl of distilled water (total binding) or 50 μl of test compound (10^-6 M) or 50 μl of mazindol (1 μM; non-specific binding) for 4 h at 4° C.
Membrane bound radioactivity was recovered by filtration under vacuum through Skatron 11734 filters using a Skatron cell harvester. Filters were rapidly washed with ice-cold 50 mM Tris-HCl, pH 7.4 containing 120 mM sodium chloride and 5 mM potassium chloride (wash setting 9,9,0) and radioactivity determined by liquid scintillation counting (1 ml Packard MV Gold scintillator).
as §1, §2, §3, §4, §5, §6, §7, §8, §9, §10, §11

T3 sequence (Q63380 1-617): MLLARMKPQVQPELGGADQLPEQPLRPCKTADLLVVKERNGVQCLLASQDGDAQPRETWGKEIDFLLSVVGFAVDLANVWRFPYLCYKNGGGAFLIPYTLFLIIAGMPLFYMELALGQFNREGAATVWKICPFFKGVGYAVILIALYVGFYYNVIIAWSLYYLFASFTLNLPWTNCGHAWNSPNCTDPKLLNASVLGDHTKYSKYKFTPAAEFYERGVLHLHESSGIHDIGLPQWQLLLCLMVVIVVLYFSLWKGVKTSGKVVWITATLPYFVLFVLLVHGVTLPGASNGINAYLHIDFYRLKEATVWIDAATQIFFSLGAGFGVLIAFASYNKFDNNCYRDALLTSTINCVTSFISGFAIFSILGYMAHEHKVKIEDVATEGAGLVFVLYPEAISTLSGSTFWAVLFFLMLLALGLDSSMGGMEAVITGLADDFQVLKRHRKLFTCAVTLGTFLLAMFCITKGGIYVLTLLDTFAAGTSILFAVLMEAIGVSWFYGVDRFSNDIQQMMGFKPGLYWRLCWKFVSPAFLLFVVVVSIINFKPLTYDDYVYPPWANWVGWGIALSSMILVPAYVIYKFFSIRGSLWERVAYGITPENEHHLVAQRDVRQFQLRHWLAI
T1 sequence (P31652 whole entry): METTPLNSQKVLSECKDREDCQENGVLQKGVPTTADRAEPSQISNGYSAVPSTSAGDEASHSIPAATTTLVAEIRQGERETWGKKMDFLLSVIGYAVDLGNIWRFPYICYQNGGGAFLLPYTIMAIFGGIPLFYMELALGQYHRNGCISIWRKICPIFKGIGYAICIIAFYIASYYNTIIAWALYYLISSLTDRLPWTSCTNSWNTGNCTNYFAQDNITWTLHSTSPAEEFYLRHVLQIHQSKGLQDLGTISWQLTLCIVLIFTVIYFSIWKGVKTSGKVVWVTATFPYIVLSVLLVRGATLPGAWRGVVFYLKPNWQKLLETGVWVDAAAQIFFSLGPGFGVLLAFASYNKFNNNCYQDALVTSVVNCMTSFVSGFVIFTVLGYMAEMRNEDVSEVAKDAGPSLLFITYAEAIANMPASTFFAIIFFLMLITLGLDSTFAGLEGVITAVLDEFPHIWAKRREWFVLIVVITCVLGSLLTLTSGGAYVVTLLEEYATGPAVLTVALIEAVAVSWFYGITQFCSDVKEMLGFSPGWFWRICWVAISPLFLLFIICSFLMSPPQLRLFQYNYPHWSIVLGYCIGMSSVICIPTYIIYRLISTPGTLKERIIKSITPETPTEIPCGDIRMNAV
T2 sequence (P23977 whole entry): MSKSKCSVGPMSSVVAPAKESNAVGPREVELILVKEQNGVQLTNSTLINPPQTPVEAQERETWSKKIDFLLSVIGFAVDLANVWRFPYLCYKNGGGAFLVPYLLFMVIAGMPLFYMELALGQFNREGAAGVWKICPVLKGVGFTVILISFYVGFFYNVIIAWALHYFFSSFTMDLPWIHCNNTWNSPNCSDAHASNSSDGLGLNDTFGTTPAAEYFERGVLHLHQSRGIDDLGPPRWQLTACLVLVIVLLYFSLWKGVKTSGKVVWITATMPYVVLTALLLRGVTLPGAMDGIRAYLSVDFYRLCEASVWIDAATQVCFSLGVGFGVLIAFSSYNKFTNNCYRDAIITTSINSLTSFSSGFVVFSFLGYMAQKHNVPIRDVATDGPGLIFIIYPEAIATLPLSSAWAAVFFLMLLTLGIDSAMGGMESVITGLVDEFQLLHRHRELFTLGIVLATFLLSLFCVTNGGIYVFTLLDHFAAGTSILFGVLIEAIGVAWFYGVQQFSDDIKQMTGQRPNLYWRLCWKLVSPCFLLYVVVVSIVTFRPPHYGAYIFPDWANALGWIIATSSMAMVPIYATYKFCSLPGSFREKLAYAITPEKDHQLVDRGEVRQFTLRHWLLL

CC(C)N=c1scc(C2(c3ccc(Cl)c(Cl)c3)CCC2)n1C(C)C [Example 17, 4-[1-(3,4-Dichlorophenyl)cyclobutyl]-3-isopropyl-2-isopropylimino-2,3-dihydrothiazole hydrobromide]
inhibition at 1 µM [1]: 95%
inhibition at 1 µM [2]: 112%
inhibition at 1 µM [3]: 63%

CC(C)(C1=CSC2=NCCN12)c1ccc(Cl)cc1 [Example 73, 3-[1-(4-Chlorophenyl)-1-methylethyl]-5,6-dihydroimidazo[2,1-b]thiazole hydrobromide]
inhibition at 1 µM [1]: < 50%
inhibition at 1 µM [2]: 59%
inhibition at 1 µM [3]: < 50%

Cc1ccccc1N=c1scc(C2(c3ccc(Cl)c(Cl)c3)CCC2)n1-c1ccccc1C [Example 29, 4-[1-(3,4-Dichlorophenyl)cyclobutyl]-3-(o-tolyl)-2-(o-tolylimino)-2,3-dihydrothiazole hydrobromide]
inhibition at 1 µM [1]: < 50%
inhibition at 1 µM [2]: 74%
inhibition at 1 µM [3]: < 50%

CCCCN=c1scc(C2(c3ccc(Cl)c(Cl)c3)CCC2)n1CCCC [Example 18, 3-Butyl-2-butylimino-4-[1-(3,4-dichlorophenyl)cyclobutyl]-2,3-dihydrothiazole hydrobromide]
inhibition at 1 µM [1]: 95%
inhibition at 1 µM [2]: 106%
inhibition at 1 µM [3]: 63%

Clc1ccc(C2(C3=CSC4=NCCN34)CCCC2)cc1Cl [Example 6, 3-[1-(3,4-dichlorophenyl)cyclopentyl]-5,6-dihydroimidazo[2,1-b]thiazole hydrobromide]
inhibition at 1 µM [1]: 86%
inhibition at 1 µM [2]: 112%
inhibition at 1 µM [3]: 101%

CC(C)N=c1scc(C2(c3ccc4ccccc4c3)CCC2)n1C(C)C [Example 39, 3-Isopropyl-2-isopropylimino-4-[1-(2-naphthyl)cyclobutyl]-2,3-dihydrothiazole hydrobromide]
inhibition at 1 µM [1]: 100%
inhibition at 1 µM [2]: 108%
inhibition at 1 µM [3]: 58%

CCCN=c1scc(C2(c3ccc(Cl)c(Cl)c3)CCC2)n1CCC [Example 16, 4-[1-(3,4-Dichlorophenyl)cyclobutyl]-3-propyl-2-propylimino-2,3-dihydrothiazole hydrobromide]
inhibition at 1 µM [1]: 102%
inhibition at 1 µM [2]: 116%
inhibition at 1 µM [3]: 56%

CSc1ccc(C2(C3=CSC4=NCCN34)CCC2)cc1 [Example 76, 3-[1-(4-Methylthiophenyl)cyclobutyl]-5,6-dihydroimidazo[2,1-b]thiazole hydrobromide]
inhibition at 1 µM [1]: 81%
inhibition at 1 µM [2]: < 50%
inhibition at 1 µM [3]: < 50%

Clc1ccc(C2(C3=C(c4ccccc4)SC4=NCCN43)CCC2)cc1Cl [Example 9, 3-[1-(3,4-dichlorophenyl)cyclobutyl]-2-phenyl-5,6-dihydroimidazo[2,1-b]thiazole hydrobromide]
inhibition at 1 µM [1]: 75%
inhibition at 1 µM [2]: 60%
inhibition at 1 µM [3]: < 50%

Clc1ccc(C2(C3=C(Cc4ccccc4)SC4=NCCN43)CCC2)cc1 [Example 7, 2-benzyl-3-[1-(4-chlorophenyl)cyclobutyl]-5,6-dihydroimidazo[2,1-b]-thiazole hydrobromide]
inhibition at 1 µM [1]: 85%
inhibition at 1 µM [2]: 69%
inhibition at 1 µM [3]: < 50%

COc1ccc(CCN=c2scc(C3(c4ccc(Cl)cc4)CCCC3)n2CCc2ccc(OC)c(OC)c2)cc1OC [Example 67, 4-[1-(4-Chlorophenyl)cyclopentyl]-3-(3,4-dimethoxyphenethyl)-2-(3,4-dimethoxyphenethylimino)-2,3-dihydrothiazole hydrobromide]
inhibition at 1 µM [1]: < 50%
inhibition at 1 µM [2]: 88%
inhibition at 1 µM [3]: < 50%

CCCCN=c1scc(C2(c3ccccc3)CCCCC2)n1CCCC [Example 61, 3-Butyl-2-butylimino-4-(1-phenylcyclohexyl)-2,3-dihydrothiazole hydrobromide]
inhibition at 1 µM [1]: < 50%
inhibition at 1 µM [2]: 68%
inhibition at 1 µM [3]: < 50%

COc1ccc(CCN=c2scc(C3(c4ccc(Cl)c(Cl)c4)CCC3)n2CCc2ccc(OC)c(OC)c2)cc1OC [Example 33, 4-[1-(3,4-Dichlorophenyi)cyclobutyl]-3-(3,4-dimethoxyphenethyl)-2-(3,4-dimethoxyphenethylimino)-2,3-dihydnothiazole hydrobromide]
inhibition at 1 µM [1]: 63%
inhibition at 1 µM [2]: 99%
inhibition at 1 µM [3]: < 50%

CCOc1ccc(N=c2scc(C3(c4ccc5ccccc5c4)CCC3)n2-c2ccc(OCC)cc2)cc1 [Example 54, 3-(4-Ethoxyphenyl)-2-(4-ethoxyphenylimino)-4-[1-(2-naphthyl)cyclobutyl]-2,3-dihydrothiazole hydrobromide]
inhibition at 1 µM [1]: < 50%
inhibition at 1 µM [2]: 69%
inhibition at 1 µM [3]: < 50%

Fc1ccc(CN=c2scc(C3(c4ccc5ccccc5c4)CCC3)n2Cc2ccc(F)cc2)cc1 [Example 45, 3-(4-Fluorobenzyl)-2-(4-fluorobenzylimino)-4-[1-(2-naphthyl)cyclobutyl]-2,3-dihydrothiazole hydrobromide]
inhibition at 1 µM [1]: 59%
inhibition at 1 µM [2]: 96%
inhibition at 1 µM [3]: < 50%

CCN=c1scc(C2(c3ccc(Cl)c(Cl)c3)CCC2)n1CC [Example 15, 4-[1-(3,4-Dichlorophenyl)cyclobutyl]-3-ethyl-2-ethylimino-2,3-dihydrothiazole hydrobromide]
inhibition at 1 µM [1]: 102%
inhibition at 1 µM [2]: 115%
inhibition at 1 µM [3]: 99%
